Here are results for one molecule from patent US11464771B2, “Bromodomain and extra-terminal protein inhibitor combination therapy” (CELGENE QUANTICEL RESEARCH, INC., priority 2016, dated 2022).

Structures are written as SMILES. Read-outs that look alike come from different tables or passages of the source.

In experiment [1] the test system is fourteen PDX-derived GBM tumor models. In words: In vitro neurosphere colony formation assay. Type of experiment: cell-based. The conditions noted are these: Homo sapiens, 168 h. How it is done:
The effect of Compound A on colony formation in fourteen PDX-derived GBM tumor models was assessed using an in vitro neurosphere assay. Compound A was tested at concentrations ranging from 0.0003 μM to 20 μM, in 3-fold increments. Colony formation was assessed after seven days of treatment by quantifying colony numbers by microscopy. […] The overall mean for the GBM models was 0.62±0.13 μM.

The test system of experiment [2] is COH71 TNBC PDX-derived model. Put plainly: 3-D Matrigel colony formation, COH71. Type of experiment: cell-based. The conditions noted are these: Homo sapiens, 7 or 14 days. How it is done: The effect of Compound A on colony formation in four PDX-derived breast cancer models was assessed using a 3-D Matrigel-based in vitro culture system. Compound A was tested at concentrations ranging from either 0.008 μM to 5 μM or 0.0016 μM to 1 μM in 5-fold increments. Colony formation was assessed after 7 days or 14 days of treatment by quantifying colony numbers by microscopy. […] The overall mean for the three TNBC models was 0.11±0.04 μM.

Experiment [3] concerns MYC expression in COH70 TNBC PDX tumor. In words: MYC down-regulation in COH70 tumors in mice. It is filed as in vivo. How it is done:
Corresponding tumor concentrations of Compound A were determined in the COH70 model at 2, 4, and 8 hrs post-dose. Maximally-measured tumor levels of Compound A were at 2 hr post-dose and were […] and 6.7±1.7 μM at 2 mg/kg and 10 mg/kg, respectively. Modulation of MYC expression levels correlated with intra-tumor concentrations of Compound A.

For `Cn1cc(-c2cc(S(C)(=O)=O)ccc2OCC2CC2)c2ccccc2c1=O` [Compound A, 4-[2-(cyclopropylmethoxy)-5-methylsulfonylphenyl]-2-methylisoquinolin-1-one], the IC50 in experiment [1] (fourteen PDX-derived GBM models, seven days of treatment, read-out: mean IC50 ± SEM of colony formation, range over models) was 110 to 2000 nM; in experiment [1] (mean over fourteen models, seven days, read-out: overall mean IC50 of colony formation for the GBM models) it was 620 ± 130 nM; in experiment [2], 180 ± 20 nM. Further, the “maximal suppression of MYC expression” value in experiment [3] (2 mg/kg, at 2 hr, rebound to control by 8 hr) came out at 51.3%; in experiment [3] (10 mg/kg, at 4 hr, no rebound by 24 hr), 63.4%.
